Results on 2 molecules are retold here after ChEMBL document CHEMBL1126435, “DuP 747: a new, potent, kappa opioid analgesic. Synthesis and pharmacology1” (Bioorg Med Chem Lett, 1992).

Test [1] concerns the target Sigma non-opioid intracellular receptor 1 (Homo sapiens, UniProt Q99720).
Description: Compound was evaluated for the binding affinity to sigma opioid receptor
In test [2] the test system is Rattus norvegicus. Kind of test: Compound was evaluated for analgesic activity by rat tail-flick assay following peroral administration. The note with it: po.
Test [3] relates to Rattus norvegicus. Kind of test: Compound was evaluated for analgesic activity by rat tail-flick assay following subcutaneous administration. Conditions: sc.

Each structure is given as a SMILES string.

Sequence of Sigma non-opioid intracellular receptor 1 (Q99720 whole entry): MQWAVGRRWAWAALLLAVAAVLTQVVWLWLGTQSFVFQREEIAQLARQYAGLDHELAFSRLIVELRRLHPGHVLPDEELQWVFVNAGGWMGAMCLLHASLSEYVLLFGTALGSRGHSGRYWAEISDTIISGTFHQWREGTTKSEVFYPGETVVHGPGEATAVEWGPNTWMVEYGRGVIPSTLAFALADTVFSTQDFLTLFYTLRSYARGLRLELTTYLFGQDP

In the case of `COc1cccc2c1CC[C@H](N1CCCC1)[C@H]2N(C)C(=O)Cc1ccc(Cl)c(Cl)c1`, the Ki in test [1] stood at 5.16 µM.

As to `CN1CC[C@]23c4c5ccc(O)c4O[C@H]2[C@@H](O)C=C[C@H]3[C@H]1C5` [MORPHINE], the 50% effective dose (ED50) came to 54 mg/kg with Rattus norvegicus [2] and 4.9 mg/kg in the test with Rattus norvegicus [3].
